According to patent publication US9056843B2, “Trifluoromethyl-oxadiazole derivatives and their use in the treatment of disease” (NOVARTIS AG, priority 2011, dated 2015):

The compounds below were run against Human recombinant HDAC4 (Homo sapiens (Human), UniProt P56524) (assay: Test 1: HDAC4 assay (fluorogenic substrate, 10 μM acetyl-Gly-Ala-Lys(trifluoroacetyl)-AMC)). Conditions: Test 1 (values indicated by an asterisk).
Human recombinant HDAC4, sequence (P56524 2-1084): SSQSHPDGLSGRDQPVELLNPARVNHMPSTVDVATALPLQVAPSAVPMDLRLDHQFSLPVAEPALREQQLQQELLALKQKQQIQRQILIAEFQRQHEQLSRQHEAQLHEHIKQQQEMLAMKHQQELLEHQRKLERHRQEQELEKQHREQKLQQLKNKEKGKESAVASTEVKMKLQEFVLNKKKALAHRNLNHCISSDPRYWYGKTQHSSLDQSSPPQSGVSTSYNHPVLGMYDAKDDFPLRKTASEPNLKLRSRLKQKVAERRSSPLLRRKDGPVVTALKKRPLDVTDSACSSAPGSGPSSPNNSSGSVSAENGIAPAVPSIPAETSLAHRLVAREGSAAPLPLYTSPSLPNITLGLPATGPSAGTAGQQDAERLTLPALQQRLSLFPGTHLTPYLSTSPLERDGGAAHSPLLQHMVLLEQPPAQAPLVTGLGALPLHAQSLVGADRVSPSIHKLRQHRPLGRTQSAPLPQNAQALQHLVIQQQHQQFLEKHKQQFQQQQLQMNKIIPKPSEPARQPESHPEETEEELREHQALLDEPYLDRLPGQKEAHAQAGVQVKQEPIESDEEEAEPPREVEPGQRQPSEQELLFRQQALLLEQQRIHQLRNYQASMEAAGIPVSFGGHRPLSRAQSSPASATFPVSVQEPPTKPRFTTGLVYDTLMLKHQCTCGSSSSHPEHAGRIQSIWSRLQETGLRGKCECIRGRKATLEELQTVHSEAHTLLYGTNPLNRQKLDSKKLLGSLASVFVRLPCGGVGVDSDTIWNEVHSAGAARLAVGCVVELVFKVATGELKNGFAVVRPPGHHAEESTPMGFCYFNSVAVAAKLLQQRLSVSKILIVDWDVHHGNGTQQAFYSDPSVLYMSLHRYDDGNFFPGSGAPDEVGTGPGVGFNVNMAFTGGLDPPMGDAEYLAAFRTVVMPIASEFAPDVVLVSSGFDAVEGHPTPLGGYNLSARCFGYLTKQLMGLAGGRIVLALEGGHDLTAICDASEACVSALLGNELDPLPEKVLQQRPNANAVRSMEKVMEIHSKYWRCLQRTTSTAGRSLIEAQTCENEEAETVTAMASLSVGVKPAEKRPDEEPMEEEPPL
Assay type: biochemical
Protocol: Test 1: HDAC4 Assay Description
Human recombinant HDAC4 was expressed in full length form (aa 2-1084) in Sf9 insect cells (obtained from ATCC) using baculovirus generated with Bac-to-Bac system (Invitrogen). Test compounds were serially diluted to reach final test concentrations from 0.003 μM to 100 μM. HDAC4 and test compounds were incubated in 25 mM Tris buffer pH 8.0 containing 137 mM NaCl, 2.7 mM KCl, 1 mM MgCl2 and 0.05% (w/v) bovine serum albumine for 2 hours at room temperature in presence of 10 μM of acetyl-Gly-Ala-Lys(E-trifluoroacetyl)-AMC (AMC=7-amino-4-methyl coumarin) in a final volume of 200 μl. Control wells with HDAC4 only (positive control) and without HDAC4 (negative control) were included on the microplate. Bovine trypsin (10 μl of a 0.4 mg/ml solution) was added and the plate incubated for additional 15 minutes at room temperature. The plate was placed in a fluorescence microplate reader, and read at an excitation wavelength of 360 nm and an emission wavelength of 450 nm with a cut-off filter of 435 nm. Fluorescence values for all wells containing HDAC4 (positive control and wells with test compound) were corrected by subtracting negative control fluorescence values, and IC50 values were calculated by fitting the dose-response curves to a 4-parameter logistic function.
HDAC4 IC50 values were obtained using Test 2, except those values indicated by an asterisk which were obtained using Test 1. NT=Not Tested
`O=C(NC1CC1)c1ccc(-c2noc(C(F)(F)F)n2)cc1` [Example 19, N-cyclopropyl-4-(5-(trifluoromethyl)-1,2,4-oxadiazol-3-yl)benzamide] showed an IC50 of 120 nM.
`CN(C)c1ccc(NC(=O)c2ccc(-c3noc(C(F)(F)F)n3)cc2)cc1` [Example 41, N-(4-(dimethylamino)phenyl)-4-(5-(trifluoromethyl)-1,2,4-oxadiazol-3-yl)benzamide] showed an IC50 of 1500 nM.
Work on `Cc1cc(NC(=O)c2ccc(-c3noc(C(F)(F)F)n3)cc2)ccn1` [Example 70, N-(2-methylpyridin-4-yl)-4-(5-(trifluoromethyl)-1,2,4-oxadiazol-3-yl)benzamide] yielded an IC50 of 90 nM.
Compound `O=S(=O)(Nc1cccnc1)c1ccc(-c2noc(C(F)(F)F)n2)cc1` [Example 100, N-(ppyridin-3-yl)-4-(5-(trifluoromethyl)-1,2,4-oxadiazol-3-yl)benzenesulfonamide] has an IC50 of 70 nM.
Work on `O=S(=O)(Nc1cccc(F)c1)c1ccc(-c2noc(C(F)(F)F)n2)cc1` [Example 106, N-(3-fluorophenyl)-4-(5-(trifluoromethyl)-1,2,4-oxadiazol-3-yl)benzenesulfonamide] yielded an IC50 of 200 nM.
Work on `CCN(CC)C[C@H](C)NC(=O)c1ccc(-c2noc(C(F)(F)F)n2)cc1` [Example 133, (S)—N-(1-(diethylamino)propan-2-yl)-4-(5-(trifluoromethyl)-1,2,4-oxadiazol-3-yl)benzamide] yielded an IC50 of 48 nM.
